# Source: patent US5102891A, “1-(substituted pyridinylamino)-1H-indol-5-yl substituted carbamates” (priority 1990, dated 1992)
# Where two headings read alike, the source gives them in different places.
# Experiments:
# [1] = test system: Scopolamine Induced Memory Deficit; assay type: in vivo, mice
# Description: In this assay mice are tested for their ability to remember an unpleasant stimulus for a period of 24 hours. A mouse is placed in a chamber that contains a dark compartment; a strong incandescent light drives it to the dark compartment, where an electric shock is administered through metal plates on the floor. The animal is removed from the testing apparatus and tested again, 24 hours later, for the ability to remember the electric shock.
# If scopolamine, an anticholinergic that is known to cause memory impairment, is administered before an animal's initial exposure to the test chamber, the animal re-enters the dark compartment shortly after being placed in the test chamber 24 hours later. This effect of scopolamine is blocked by an active test compound, resulting in a greater interval before re-entry into the dark compartment.
# The results for an active compound are expressed as the percent of a group of animals in which the effect of scopolamine is blocked, as manifested by an increased interval between being placed in the test chamber and re-entering the dark compartment.
# [2] = molecular target: T1, Acetylcholinesterase (AChE) (Rattus norvegicus, UniProt P37136); experiment: biochemical; details: rat striatum homogenate, 10 min preincubation at 37° C., pH 7.2, acetylthiocholine 5 mM final; read-out: Inhibitory Concentration Brain AChE
# T1 construct: corpora striata dissected free, weighed and homogenized in 19 volumes; from tissue; host or cells: corpora striata of male Wistar rats, whole homogenate
# Description: Cholinesterases are found throughout the body, both in the brain and in serum. However, only brain acetylcholinesterase (AChE) distribution is correlated with central cholinergic innervation.
# The method described below was used in this invention for assaying cholinesterase activity.
# 1. 0.05M Phosphate buffer, pH 7.2
# (c) add (a) to (b) until pH reaches 7.2
# 4. A 2 mM stock solution of the test drug is made up in a suitable solvent and q.s. to volume with 0.5 mM DTNB (reagent 3). Drugs are serially diluted (1:10) such that the final concentration (in cuvette) is 10^-4 M and screened for activity. If active, IC50 values are determined from the inhibitory activity of subsequent concentrations.
# Male Wistar rats are decapitated, brains rapidly removed, corpora striata dissected free, weighed and homogenized in 19 volumes (approximately 7 mg protein/ml) of 0.05M phosphate buffer, pH 7.2 using a Potter-Elvehjem homogenizer. […]
# Enzyme activity is measured with the Beckman DU-50 spectrophotometer. […]
# Blank values are determined for each run to control for non-enzymatic hydrolysis of substrate and these values are automatically subtracted by the kindata program available on kinetics soft-pac module. This program also calculates the rate of absorbance change for each cuvette. […]
# T1 sequence (P37136 32-614): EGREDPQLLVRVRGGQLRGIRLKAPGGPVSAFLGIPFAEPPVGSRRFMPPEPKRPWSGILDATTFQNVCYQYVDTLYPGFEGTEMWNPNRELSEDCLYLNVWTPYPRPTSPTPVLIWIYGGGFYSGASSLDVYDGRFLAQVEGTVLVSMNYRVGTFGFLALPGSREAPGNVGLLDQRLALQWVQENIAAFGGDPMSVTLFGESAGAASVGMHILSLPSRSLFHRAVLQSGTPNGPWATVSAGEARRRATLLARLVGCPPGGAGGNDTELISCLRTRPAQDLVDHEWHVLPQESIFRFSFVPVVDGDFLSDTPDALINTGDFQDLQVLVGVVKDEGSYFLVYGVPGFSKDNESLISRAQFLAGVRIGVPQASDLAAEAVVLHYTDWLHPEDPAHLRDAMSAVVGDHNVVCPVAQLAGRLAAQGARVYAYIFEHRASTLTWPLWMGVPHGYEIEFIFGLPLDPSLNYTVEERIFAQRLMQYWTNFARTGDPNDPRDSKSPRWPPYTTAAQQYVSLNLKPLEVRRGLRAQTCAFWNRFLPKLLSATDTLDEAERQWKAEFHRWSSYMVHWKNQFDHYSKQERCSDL
compound,measurement,setting,value
CC[C@@H]1C(=O)OC[C@@H]1Cc1cncn1C [Pilocarpine],% of Animals with Scopolamine Induced Memory Deficit Reversal,"[1]; mice, 5.0 mg/kg of body weight, s.c., retest 24 hours",13%
CCCN(c1ccncc1)n1ccc2cc(OC(=O)NC)ccc21 [1-(Propyl-4-pyridinylamino)-1H-indol-5-yl methylcarbamate],% of Animals with Scopolamine Induced Memory Deficit Reversal,"[1]; mice, 0.35 mg/kg of body weight, s.c., retest 24 hours",21%
same,IC50,[2],0.0023 µM
Nc1c2c(nc3ccccc13)CCCC2 [Tacrine],% of Animals with Scopolamine Induced Memory Deficit Reversal,"[1]; mouse, in vivo, sc, 0.63 mg/kg",13%
CCCN(c1ccncc1)n1ccc2cc(OC(=O)N[C@@H](C)c3ccccc3)ccc21 [(S)-(-)-1-(Propyl-4-pyridinylamino)-1H-indol-5-yl 1-phenylethylcarbamate],IC50,[2],30.2 µM
